The values that follow come from paper PMC9774128, “New Insights into the Mechanism of Antibacterial Action of Synthetic Peptide Mo-CBP3-PepI against Klebsiella pneumoniae” (Antibiotics, 2022).

The test system of data set [1] is K. pneumoniae (ATCC 10031). The experiment in a line: Antibacterial assay (MIC50). In kind it is cell-based, Klebsiella pneumoniae. To be noted: against K. pneumoniae; compared with 31.25 µg mL^−1 of Oliveira et al. From the text:
The human-pathogenic Gram-negative bacteria K. pneumoniae (ATCC 10031) strain was obtained from the Laboratory of Plant Toxins (LABTOX) of the Federal University of Ceará (UFC).

The subject of data set [2] is K. pneumoniae cells. As to the kind of experiment: Cell viability by MTT assay, planktonic cells. In kind it is cell-based, Klebsiella pneumoniae. Particulars: peptide at MIC50 31.25 μg mL^−1 (Table 1; method says 1 mg mL^−1), MTT 3 h, 37 °C, absorbance 495 nm. Here is the method: The cell viability assay was performed as described by Lima et al., with some adjustments. After the antibacterial assay was completed as described by Oliveira et al., the wells containing the treated cells with Mo-CBP3-PepI at 1 mg mL^−1 and control cells (50 µL) were incubated for 3 h in the dark at 37 °C with 50 µL of 3-(4,5-dimethylthiazol-2-yl)-2,5-diphenyltetrazolium bromide (2 mg mL^−1, MTT). After incubation, 100 µL of 100% DMSO was added to the wells, and the plate was slowly shaken to dissolve the formazan crystals. The absorbance was measured using a microplate reader (Epoch, BioTek) with a wavelength of 495 nm. The controls used for this assay were 5% of dimethyl sulfoxide (DMSO) prepared in 0.15 M NaCl (saline) solution and ciprofloxacin (1000 µg mL^−1) prepared in 5% ethanol in sterile saline solution.

In data set [3] the test system is K. pneumoniae cell membrane. As to the kind of experiment: Cell membrane integrity by propidium iodide uptake. It counts as cell-based, Klebsiella pneumoniae. To be noted: peptide 31.25 µg mL^−1, 24 h. The protocol: The assay was conducted as described by Oliveira et al., with some modifications. Preparation of cell suspension was completed as mentioned above. After, 50 µL of the diluted bacteria solution was incubated in the dark for 24 h, at 37 °C, with 50 µL of the peptide solution (31.25 µg mL^−1) previously prepared with 5% of dimethyl sulfoxide (DMSO) diluted in 0.15 M NaCl solution. The assay was conducted in 1.5 mL microtubes. The diluted bacteria solution was incubated only with the DMSO-NaCl solution for control. After incubation, the microtubes were centrifuged (5000× g, 5 min, 4 °C) and washed three times. Next, the washed cells were incubated with 1 µM propidium iodide for 30 min, in the dark, at 37 °C. After this, the cells were washed two times with saline solution to remove the excess fluorophore and observed with a fluorescence microscope (Olympus System BX 60; excitation wavelength, 488 nm; emission wavelength, […]).

Data set [4] concerns K. pneumoniae cells. As to the kind of experiment: ROS overproduction (DCFH-DA fluorescence microscopy). In kind it is cell-based, Klebsiella pneumoniae. To be noted: peptide 31.25 µg mL^−1, 24 h, 1 mM DCFH-DA 30 min. The protocol: This assay was conducted in the same way as above but with a few differences. The preparation of cell suspension and the antimicrobial assay was performed in the same way described above. After the three rounds of centrifugation and washes, the cells were incubated with 1 mM 2,7-dichlorofluorescein diacetate (DCFH-DA) for 30 min, in the dark, at 37 °C. After the washes, the cells were also observed under a fluorescence microscope (Olympus System BX60; excitation wavelength, 488 nm; emission wavelength, 525 nm).

The test system of data set [5] is K. pneumoniae (ATCC 10031). Set-up: method as in PMID 30389515. To be noted: against K. pneumoniae; cited from earlier work.
Details of data set [6]: method as in PMID 30389515. To be noted: design feature; cited from earlier work. An excerpt:
Synthetic antimicrobial peptides emerged as a solution to solve the problems presented by natural antimicrobial peptides. […] To answer the first question, it is necessary to revert to the design process of Mo-CBP3-PepI.

The subject of data set [7] is C. albicans cells. To be noted: cited from earlier work. From the text:
To answer the second question, it is necessary to understand an essential characteristic of antimicrobial peptides, self-association. Self-association is the ability of antimicrobial peptides to interact during the insertion into the membrane, allowing the formation of a huge pore. […] In this model, a peptide interacts with lipids in the membrane, as described above, to perform the insertion into the membrane. Then, the peptide molecules interact between them to form a huge por ...

Turning to CPAIQRCC [Mo-CBP3-PepI], the “MIC50, experiments repeated here” value in data set [1] was “same results”. In data set [2], the “Cell Viability (%)” value amounted to 47.54 ± 0.008%. The “pore size indicated by movement of PI” value in data set [3] was 692.50 Da. Further, the “membrane pore formation (PI uptake)” value in data set [3] (37 °C, 1 µM PI 30 min, fluorescence microscopy) is “induced the pore formation”. Also, the ROS overproduction result in data set [4] is reported as “slight accumulation of ROS”. Also, the MIC50 in data set [5] was 31.25 µg/mL. Also, in data set [6], the hydrophobic ratio is 62% and the net charge result is reported as “+1”. The pore size in data set [7] was 10 kDa.
